# From patent US7713963B2, “Acylated indanyl amines and their use as pharmaceuticals” (sanofi-aventis Deutschland GmbH, priority 2001, dated 2010)
# Read-outs that look alike come from different tables or passages of the source.
# System: eNOS promoter
# Experiment: Activation of eNOS transcription (eNOS promoter-luciferase reporter gene assay)
# Assay type: cell-based, human
# Conditions: 18 h incubation; for maximal fold induction: read-out: TIR (max); for EC50: EC50 of transcription induction ratio, determined graphically, human endothelial cell line, read-out: EC-50
# Method: Measurement of activation of eNOS transcription Activation of eNOS transcription was measured as described in detail in Li et al. “Activation of protein kinase C alpha and/or epsilon enhances transcription of the human endothelial nitric oxide synthase gene”, Mol. Pharmacol. 1998; 53: 630-637. Briefly, a 3.5 kB long fragment 5′ of the starting codon of the eNOS gene was cloned, sequenced and cloned in firefly luciferase expression plasmids to monitor activation of the eNOS promoter by reporter gene activity. A human endothelial cell line stable transfected and expressing this promoter-reporter construct was used for compound testing. Cells were incubated for 18 h with compounds. All compounds were dissolved in sterile DMSO. A final concentration of 0.5% DMSO in complete medium was allowed. Induction of reporter gene expression in these cells was measured using a standard luciferase assay system (Promega, Cat. No E150) according to the manufacturer's instructions. Luciferase induction in cells incubated with compounds were compared to those incubated with solvent alone. The ratio of both activities (transcription induction ratio, TIR) was plotted as a function of compound concentration. […] EC50 values of transcription induction ratios as a function of compound concentration were determined graphically.
# [1] = Homo sapiens, 18 h, maximum transcription induction ratio (luciferase with compound / solvent alone)
# [2] = Homo sapiens, Endothelial cell, 18 h
SMILES,EC50 [2] [µM],EC50 [µM],maximal fold induction [1],TIR (max) (maximum transcription induction ratio (luciferase with compound / solvent alone))
"Cc1ccc2c(c1)CC(NC(=O)c1ccc(F)cc1)C2 (stereo not shown) [Compound 5, 4-FLUORO-N-(5-METHYL-INDAN-2-YL)-BENZAMIDE]",30,–,2.5,–
"Cc1nc(C(F)(F)F)ccc1C(=O)NC1Cc2ccccc2C1 [Compound 237, N-INDAN-2-YL-2-METHYL-6-TRIFLUOROMETHYL-NICOTINAMIDE]",7.7,–,2.5,–
"O=C(NC1Cc2ccccc2C1)c1cccc(NC(=O)C2CC2)c1 [Compound 376, 3-(CYCLOPROPANECARBONYL-AMINO)-N-INDAN-2-YL-BENZAMIDE]",5.3,–,2.4,–
"O=C(NC1Cc2ccccc2C1)c1ccc(F)c(F)c1F [Compound 320, 2,3,4-TRIFLUORO-N-INDAN-2-YL-BENZAMIDE]",12,–,3,–
"O=C(NC1Cc2cc(Br)c(Br)cc2C1)c1ccc(F)cc1 [Compound 397, N-(5,6-DIBROMO-INDAN-2-YL)-4-FLUORO-BENZAMIDE]",30,–,1.7,–
"O=C(NC1Cc2ccc(OS(=O)(=O)c3ccccc3)cc2C1)c1ccc(F)cc1 (stereo not shown) [Compound 405, BENZENESULFONIC ACID 2-(4-FLUOROBENZOYLAMINO)-INDAN-5-YL ESTER]",30,–,2.8,–
"Cc1cc(C)c(C(=O)NC2Cc3ccccc3C2)c(C)c1 [Compound 282, N-INDAN-2-YL-2,4,6-TRIMETHYL-BENZAMIDE]",16,–,2.3,–
"Cc1cccc2c1CC(NC(=O)c1ccc(F)cc1)C2 (single isomer, unassigned; (-)) [Compound 1a, (−)-4-Fluoro-N-(4-methyl-indan-2-yl)-benzamide]",–,6,2.8,–
"COc1c(Br)cccc1C(=O)NC1Cc2ccccc2C1 [Compound 253, 3-BROMO-N-INDAN-2-YL-2-METHOXY-BENZAMIDE]",13,–,2.2,–
"O=C(NC1Cc2ccccc2C1)c1ccc(Cl)cc1Cl [Compound 277, 2,4-DICHLORO-N-INDAN-2-YL-BENZAMIDE]",4.1,–,3,–
"O=C(NC1Cc2ccccc2C1)c1cccc(Cl)c1F [Compound 250, 3-CHLORO-2-FLUORO-N-INDAN-2-YL-BENZAMIDE]",58,–,2.5,–
"Cc1cccc2c1CC(NC(=O)c1ccc(F)cc1)C2 (single isomer, unassigned; (+)) [Compound 1b, (+)-4-Fluoro-N-(4-methyl-indan-2-yl)-benzamide]",–,0.2,–,3.00
"O=C(NC1Cc2ccccc2C1)c1cccc(-c2ccccn2)c1 [Compound 433, N-INDAN-2-YL-3-PYRIDIN-2-YL-BENZAMIDE]",19,–,2.6,–
"O=C(NC1Cc2ccccc2C1)c1ccc(C(F)(F)F)nc1 [Compound 236, N-INDAN-2-YL-6-TRIFLUOROMETHYL-NICOTINAMIDE]",22,–,2,–
"Nc1c(C(=O)NC2Cc3ccccc3C2)cnn1-c1ccccn1 [Compound 386A, 5-AMINO-1-PYRIDIN-2-YL-1H-PYRAZOLE-4-CARBOXYLIC ACID INDAN-2-YLAMIDE]",5.1,–,3.3,–
"O=C(NC1Cc2ccccc2C1)c1cc(F)c(Cl)cc1F [Compound 263, 4-CHLORO-2,5-DIFLUORO-N-INDAN-2-YL-BENZAMIDE]",13,–,2.5,–
"O=C(NC1Cc2ccccc2C1)c1ccoc1 [Compound 296, FURAN-3-CARBOXYLIC ACID INDAN-2-YLAMIDE]",13,–,2.5,–
"O=C(C=Cc1cccc2c1CC(NC(=O)c1ccc(F)cc1)C2)Nc1ccc(Cl)cc1 (stereo not shown) [Compound 413, N-{4-[2-(4-CHLORO-PHENYLCARBAMOYL)-VINYL]-INDAN-2-YL}-4-FLUORO-BENZAMIDE]",8.5,–,2.5,–
"Cc1c(C(=O)NC2Cc3ccccc3C2)oc2ccccc12 [Compound 319, 3-METHYL-BENZOFURAN-2-CARBOXYLIC ACID INDAN-2-YLAMIDE]",25,–,2.4,–
"CCOc1cc(C(=O)NC2Cc3ccccc3C2)ccc1OC [Compound 25, 3-ETHOXY-4-METHOXY-N-INDAN-2-YL-BENZAMIDE]",12,–,2.7,–
"Cc1ccc(F)c(C(=O)NC2Cc3ccccc3C2)c1Cl [Compound 346, 2-CHLORO-6-FLUORO-N-INDAN-2-YL-3-METHYL-BENZAMIDE]",26,–,2.6,–
"Cc1ccc(C(=O)Nc2cccc(C(=O)NC3Cc4ccccc4C3)c2)cc1 [Compound 381, 3-(4-METHYL-BENZOYLAMINO)-BENZOIC ACID INDAN-2-YLAMIDE]",12,–,2.5,–
"O=C(NC1Cc2ccccc2C1)c1ccc(F)c(Br)c1 [Compound 33, 3-BROMO-4-FLUORO-N-INDAN-2-YL-BENZAMIDE]",4,–,3.3,–
"CS(=O)(=O)c1ccc(C(=O)NC2Cc3ccccc3C2)c(Cl)c1 [Compound 312, 2-CHLORO-N-INDAN-2-YL-4-METHANESULFONYL-BENZAMIDE]",16,–,2.2,–
"O=C(NC1Cc2ccccc2C1)c1cc(Cl)ccc1F [Compound 330, 5-CHLORO-2-FLUORO-N-INDAN-2-YL-BENZAMIDE]",12,–,2.2,–
"Cc1ccc(F)c(C(=O)NC2Cc3ccccc3C2)c1 [Compound 266, 2-FLUORO-N-INDAN-2-YL-5-METHYL-BENZAMIDE]",22,–,2.5,–
"Cc1cc(C(=O)NC2Cc3ccccc3C2)c(C)s1 [Compound 368, 2,5-DIMETHYL-THIOPHENE-3-CARBOXYLIC ACID INDAN-2-YLAMIDE]",17,–,2.5,–

# Second part, led by results:
EC50 [2] [µM],EC50 [µM],SMILES,maximal fold induction [1],TIR (max) (maximum transcription induction ratio (luciferase with compound / solvent alone))
2,–,"CN(C)C(=O)C=Cc1cccc2c1CC(NC(=O)c1ccc(F)cc1)C2 (stereo not shown) [Compound 411, N-[4-(2-DIMETHYLCARBAMOYL-VINYL)-INDAN-2-YL]-4-FLUORO-BENZAMIDE]",2.5,–
0.841,–,"CCc1cccc2c1CC(NC(=O)c1ccc(F)cc1)C2 (stereo not shown) [Compound 428, N-(4-ETHYL-INDAN-2-YL)-4-FLUORO-BENZAMIDE]",2.8,–
0.6,–,"O=C(NC1Cc2cccc(Br)c2C1)c1ccc(F)cc1 (single isomer, unassigned) [Compound 396A, N-(4-BROMO-INDAN-2-YL)-4-FLUORO-BENZAMIDE]",3.55,–
0.559,–,"O=C(NC1Cc2ccccc2C1)c1ccccc1Cl [Compound 275, 2-CHLORO-N-INDAN-2-YL-BENZAMIDE]",3,–
4,–,"Cc1ccc2c(Cl)c(C(=O)NC3Cc4ccccc4C3)sc2c1 [Compound 332, 3-CHLORO-6-METHYL-BENZO[B]THIOPHENE-2-CARBOXYLIC ACID INDAN-2-YLAMIDE]",2,–
0.147,–,"O=C(NC1Cc2ccccc2C1)c1ccc(Cl)cc1Br [Compound 331, 2-BROMO-4-CHLORO-N-INDAN-2-YL-BENZAMIDE]",2.8,–
0.6,–,"O=C(NC1Cc2c(I)ccc(I)c2C1)c1ccc(F)cc1 [Compound 429, N-(4,7-DIIODO-INDAN-2-YL)-4-FLUORO-BENZAMIDE]",2.8,–
2.1,–,"O=C(NC1Cc2ccccc2C1)c1sc2cc(F)ccc2c1Cl [Compound 324, 3-CHLORO-6-FLUORO-BENZO[B]THIOPHENE-2-CARBOXYLIC ACID INDAN-2-YLAMIDE]",1.7,–
1.6,–,"O=C(NC1Cc2ccccc2C1)c1ccccc1Br [Compound 272, 2-BROMO-N-INDAN-2-YL-BENZAMIDE]",2.9,–
1.6,–,"CC(C)C(=O)Nc1cccc(C(=O)NC2Cc3ccccc3C2)c1 [Compound 372, N-INDAN-2-YL-3-ISOBUTYRYLAMINO-BENZAMIDE]",2.7,–
0.18,–,"O=C(NC1Cc2ccccc2C1)c1ccc(Br)s1 [Compound 41, 5-BROMO-THIOPHEN-2-CARBOXYLIC ACID-INDAN-2-YLAMIDE]",2.4,–
0.263,–,"CCOc1cccc(C(=O)NC2Cc3ccccc3C2)c1 [Compound 306, 3-ETHOXY-N-INDAN-2-YL-BENZAMIDE]",2.7,–
0.684,–,"Cc1ccccc1C(=O)NC1Cc2ccccc2C1 [Compound 281, N-INDAN-2-YL-2-METHYL-BENZAMIDE]",3,–
0.287,–,"Cc1csc(C(=O)NC2Cc3ccccc3C2)c1Cl [Compound 342, 3-CHLORO-4-METHYL-THIOPHENE-2-CARBOXYLIC ACID INDAN-2-YLAMIDE]",3,–
0.157,–,"O=C(NC1Cc2ccccc2C1)c1cccc(Cl)c1Cl [Compound 276, 2,3-DICHLORO-N-INDAN-2-YL-BENZAMIDE]",3,–
2.5,–,"CC(C)Oc1ccc(C(=O)NC2Cc3ccccc3C2)cc1 [Compound 28, 4-ISOPROPYLOXY-N-INDAN-2-YL-BENZAMIDE]",4.4,–
0.7,–,"Nc1ccccc1C(=O)NC1Cc2ccccc2C1 [Compound 73, 2-AMINO-N-INDAN-2-YL-BENZAMIDE]",4,–
